In patent US20240383886A1, “Protein Tyrosine Phosphatase Degraders and Methods of Use Thereof” (CALICO LIFE SCIENCES LLC, priority 2019, published 2024):

Key:
PTPN2 [1] = target: T1, PTPN2 (Homo sapiens, UniProt P17706); assay: HiBiT-Degradation 293T.109 PTPN2 (Nano-Glo HiBiT Lytic Assay); format: cell-based; conditions: 293T.109 (HiBiT-PTPN2) cells, 24.0 hours
T1 construct: expressed in transfected cells; host or cells: 293T (293T.109 HiBiT-PTPN2 line; parental 293T WT from ATCC)
T1 sequence (P17706 1-415): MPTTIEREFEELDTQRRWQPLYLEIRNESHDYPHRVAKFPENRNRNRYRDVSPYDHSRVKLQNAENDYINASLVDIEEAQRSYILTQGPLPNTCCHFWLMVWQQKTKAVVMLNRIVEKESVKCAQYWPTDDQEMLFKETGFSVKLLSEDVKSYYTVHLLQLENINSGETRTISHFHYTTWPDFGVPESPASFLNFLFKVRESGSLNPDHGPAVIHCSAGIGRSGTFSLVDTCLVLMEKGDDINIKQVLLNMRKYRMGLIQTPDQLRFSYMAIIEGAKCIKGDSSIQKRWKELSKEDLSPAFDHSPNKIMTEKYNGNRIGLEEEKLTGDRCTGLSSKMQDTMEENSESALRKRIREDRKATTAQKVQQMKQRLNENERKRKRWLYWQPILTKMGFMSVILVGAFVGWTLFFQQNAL
How it was run: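 293T cells ectopically expressing N-terminally HiBiT-tagged PTPN2 were seeded at 5000 cells/well. They were treated with an 11-point half-log titration from 10 μM, in duplicate, for 24 hours at 37° C., 5% CO2. Remaining tagged PTPN2 was quantified by lytic HiBiT luminescence against untreated and no-reagent controls.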

PTPN2 [2] = assay: HiBiT-Degradation B16F10.4 PTPN2; format: cell-based; conditions: B16F10.4 cells, 24.0 hours

| Structure (SMILES) | DC50 (PTPN2 [1]) [nM] | DC50 (PTPN2 [2]) [nM] |
| --- | --- | --- |
| Cc1cc(CC(=O)Nc2ccc3c(F)c(N4CC(=O)NS4(=O)=O)c(O)cc3c2)ccc1Nc1ccc2c(c1)n(C)c(=O)n2C1CCC(=O)NC1=O (centres unmarked) [Example 169, N-(6-(1,1-dioxido-4-oxo-1,2,5-thiadiazolidin-2-yl)-5-fluoro-7-hydroxynaphthalen-2-yl)-2-(4-((1-(2,6-dioxopiperidin-3-yl)-3-methyl-2-oxo-2,3-dihydro-1H-benzo[d]imidazol-5-yl)amino)-3-methylphenyl)acetamide] | 10 to 50 | 10 to 50 |
| Cn1c(=O)n(C2CCC(=O)NC2=O)c2ccc(C3CCN(CCC(=O)Nc4ccc5c(F)c(N6CC(=O)NS6(=O)=O)c(O)cc5c4)CC3)cc21 (centres unmarked) [Example 170, N-(6-(1,1-dioxido-4-oxo-1,2,5-thiadiazolidin-2-yl)-5-fluoro-7-hydroxynaphthalen-2-yl)-3-(4-(1-(2,6-dioxopiperidin-3-yl)-3-methyl-2-oxo-2,3-dihydro-1H-benzo[d]imidazol-5-yl)piperidin-1-yl)propanamide] | 10 to 50 | 50 to 200 |
| Cn1c(=O)n(C2CCC(=O)NC2=O)c2ccc(C3CCN(CC(=O)N4CC(Nc5ccc6cc(O)c(N7CC(=O)NS7(=O)=O)c(F)c6c5)C4)CC3(F)F)cc21 (centres unmarked) [Example 171, 3-(5-(1-(2-(3-((7-(1,1-dioxido-4-oxo-1,2,5-thiadiazolidin-2-yl)-8-fluoro-6-hydroxynaphthalen-2-yl)amino)azetidin-1-yl)-2-oxoethyl)-3,3-difluoropiperidin-4-yl)-3-methyl-2-oxo-2,3-dihydro-1H-benzo[d]imidazol-1-yl)piperidine-2,6-dione] | 50 to 200 | 50 to 200 |
| Cn1c(=O)n(C2CCC(=O)NC2=O)c2ccc(-c3cnn(CC(=O)Nc4ccc5c(F)c(N6CC(=O)NS6(=O)=O)c(O)cc5c4)c3)cc21 (centres unmarked) [Example 172, 2-[4-[1-(2,6-dioxo-3-piperidyl)-3-methyl-2-oxo-benzimidazol-5-yl]pyrazol-1-yl]-N-[5-fluoro-7-hydroxy-6-(1,1,4-trioxo-1,2,5-thiadiazolidin-2-yl)-2-naphthyl]acetamide] | 10 to 50 | 10 to 50 |
| Cn1c(=O)n(C2CCC(=O)NC2=O)c2ccc(-c3cnn(CCC(=O)Nc4ccc5c(F)c(N6CC(=O)NS6(=O)=O)c(O)cc5c4)c3)cc21 (centres unmarked) [Example 173, N-(6-(1,1-dioxido-4-oxo-1,2,5-thiadiazolidin-2-yl)-5-fluoro-7-hydroxynaphthalen-2-yl)-3-(4-(1-(2,6-dioxopiperidin-3-yl)-3-methyl-2-oxo-2,3-dihydro-1H-benzo[d]imidazol-5-yl)-1H-pyrazol-1-yl)propanamide] | 10 to 50 | 50 to 200 |
| CCn1c(=O)n(C2CCC(=O)NC2=O)c2ccc(C3CCN(CC(=O)Nc4ccc5c(F)c(N6CC(=O)NS6(=O)=O)c(O)cc5c4)CC3)cc21 (centres unmarked) [Example 174, N-(6-(1,1-dioxido-4-oxo-1,2,5-thiadiazolidin-2-yl)-5-fluoro-7-hydroxynaphthalen-2-yl)-2-(4-(1-(2,6-dioxopiperidin-3-yl)-3-ethyl-2-oxo-2,3-dihydro-1H-benzo[d]imidazol-5-yl)piperidin-1-yl)acetamide] | 10 to 50 | 50 to 200 |
| Cn1c(=O)n(C2CCC(=O)NC2=O)c2ccc(-c3ccc(CC(=O)Nc4ccc5c(F)c(N6CC(=O)NS6(=O)=O)c(O)cc5c4)nc3)cc21 (centres unmarked) [Example 175, N-(6-(1,1-dioxido-4-oxo-1,2,5-thiadiazolidin-2-yl)-5-fluoro-7-hydroxynaphthalen-2-yl)-2-(5-(1-(2,6-dioxopiperidin-3-yl)-3-methyl-2-oxo-2,3-dihydro-1H-benzo[d]imidazol-5-yl)pyridin-2-yl)acetamide] | 10 to 50 | 50 to 200 |
| Cn1c(=O)n(C2CCC(=O)NC2=O)c2ccc(C3CCN(CC4CC4C(=O)Nc4ccc5c(F)c(N6CC(=O)NS6(=O)=O)c(O)cc5c4)CC3)cc21 (centres unmarked) [Example 176, N-(6-(1,1-dioxido-4-oxo-1,2,5-thiadiazolidin-2-yl)-5-fluoro-7-hydroxynaphthalen-2-yl)-2-((4-(1-(2,6-dioxopiperidin-3-yl)-3-methyl-2-oxo-2,3-dihydro-1H-benzo[d]imidazol-5-yl)piperidin-1-yl)methyl)cyclopropane-1-carboxamide] | 10 to 50 | 50 to 200 |
| Cn1nc(C2CCC(=O)NC2=O)c2ccc(-c3ccc(CC(=O)Nc4ccc5c(F)c(N6CC(=O)NS6(=O)=O)c(O)cc5c4)cc3)cc21 (centres unmarked) [Example 177, N-(6-(1,1-dioxido-4-oxo-1,2,5-thiadiazolidin-2-yl)-5-fluoro-7-hydroxynaphthalen-2-yl)-2-(4-(3-(2,6-dioxopiperidin-3-yl)-1-methyl-1H-indazol-6-yl)phenyl)acetamide] | 10 to 50 | 50 to 200 |
| C[C@@H]1CC(c2ccc3c(c2)n(C)c(=O)n3C2CCC(=O)NC2=O)CCN1CC(=O)Nc1ccc2c(F)c(N3CC(=O)NS3(=O)=O)c(O)cc2c1 (stereo partly drawn) [Example 178, N-(6-(1,1-dioxido-4-oxo-1,2,5-thiadiazolidin-2-yl)-5-fluoro-7-hydroxynaphthalen-2-yl)-2-((2R)-4-(1-(2,6-dioxopiperidin-3-yl)-3-methyl-2-oxo-2,3-dihydro-1H-benzo[d]imidazol-5-yl)-2-methylpiperidin-1-yl)acetamide] | 10 to 50 | 50 to 200 |
| Cn1nc(C2CCC(=O)NC2=O)c2ccc([C@H]3CC[C@@H](CC(=O)Nc4ccc5c(F)c(N6CC(=O)NS6(=O)=O)c(O)cc5c4)CC3)cc21 (stereo partly drawn) [Example 180, N-(6-(1,1-dioxido-4-oxo-1,2,5-thiadiazolidin-2-yl)-5-fluoro-7-hydroxynaphthalen-2-yl)-2-((cis)-4-(3-(2,6-dioxopiperidin-3-yl)-1-methyl-1H-indazol-6-yl)cyclohexyl)acetamide] | 10 to 50 | 50 to 200 |
| Cn1c(=O)n(C2CCC(=O)NC2=O)c2ccc(N3CCC(CCNC(=O)Nc4ccc5c(F)c(N6CC(=O)NS6(=O)=O)c(O)cc5c4)CC3)cc21 (centres unmarked) [Example 181] | 10 to 50 | 50 to 200 |
| Cn1c(=O)n(C2CCC(=O)NC2=O)c2ccc(C3CCN(CC(=O)Nc4ccc5c(F)c(N6CC(=O)NS6(=O)=O)c(O)cc5c4)CC3F)cc21 (centres unmarked) [Example 182, 2-[4-[1-(2,6-dioxo-3-piperidyl)-3-methyl-2-oxo-benzimidazol-5-yl]-3-fluoro-1-piperidyl]-N-[5-fluoro-7-hydroxy-6-(1,1,4-trioxo-1,2,5-thiadiazolidin-2-yl)-2-naphthyl]acetamide] | 10 to 50 | 10 to 50 |
| Cn1c(=O)n(C2CCC(=O)NC2=O)c2ccc(C3CCN([C@H](CO)C(=O)Nc4ccc5c(F)c(N6CC(=O)NS6(=O)=O)c(O)cc5c4)CC3)cc21 (stereo partly drawn) [Example 183, (2R)—N-(6-(1,1-dioxido-4-oxo-1,2,5-thiadiazolidin-2-yl)-5-fluoro-7-hydroxynaphthalen-2-yl)-2-(4-(1-(2,6-dioxopiperidin-3-yl)-3-methyl-2-oxo-2,3-dihydro-1H-benzo[d]imidazol-5-yl)piperidin-1-yl)-3-hydroxypropanamide] | 10 to 50 | 10 to 50 |
| Cn1c(=O)n(C2CCC(=O)NC2=O)c2ccc(C3CCN([C@@H](CO)C(=O)Nc4ccc5c(F)c(N6CC(=O)NS6(=O)=O)c(O)cc5c4)CC3)cc21 (stereo partly drawn) [Example 184, (2S)—N-(6-(1,1-dioxido-4-oxo-1,2,5-thiadiazolidin-2-yl)-5-fluoro-7-hydroxynaphthalen-2-yl)-2-(4-(1-(2,6-dioxopiperidin-3-yl)-3-methyl-2-oxo-2,3-dihydro-1H-benzo[d]imidazol-5-yl)piperidin-1-yl)-3-hydroxypropanamide] | 10 to 50 | 50 to 200 |
| Cc1cc(CC(=O)Nc2ccc3c(F)c(N4CC(=O)NS4(=O)=O)c(O)cc3c2)ccc1Nc1ccc2c(C3CCC(=O)NC3=O)nn(C)c2c1 (centres unmarked) [Example 185, N-(6-(1,1-dioxido-4-oxo-1,2,5-thiadiazolidin-2-yl)-5-fluoro-7-hydroxynaphthalen-2-yl)-2-(4-((3-(2,6-dioxopiperidin-3-yl)-1-methyl-1H-indazol-6-yl)amino)-3-methylphenyl)acetamide] | 10 to 50 | 50 to 200 |
